Data set [1] concerns tMEK2^MUT-induced gene activation (PR1b1, PR3, Twi1, ER5). As to the kind of experiment: Effect of MAPK inhibitors on tMEK2^MUT-induced gene activation in tomato protoplasts. In kind it is cell-based, Tomato (Lycopersicon esculentum cv Bonny Best). The settings on record: for effect on all four genes previously activated by tMEK2^MUT: inhibitor at 1 μM in protoplast incubation buffer, genes PR1b1, PR3, Twi1, ER5 (FIG. 6); for effect on tMEK2^MUT-activated PR3 and ER5 genes / effect on tMEK2^MUT-activated PRlbl or Twi1 genes: 350 nM for SB 202190, 1 μM for SB 203580 in protoplast incubation buffer (FIG. 6). The procedure:
Kinase inhibitors at the concentration of 1 μM for staurosporine, 350 nM for SB 202190 and 1 μM for PD 98059, SB 203580 and SB 202474 were included in the proteoplast incubation buffer.
The protoplasts were resuspended in electroporation buffer containing 150 mM MgCl2 and 0.4 M mannitol at a density of 1×10^6 protoplasts/ml and co-electroporated with […] of pTZ19 carrying tMEK2 gene and pJD300 carrying luciferase gene in a total volume of 500 μl as described by Leckie (1994) with some modifications. Electroporation was performed at 200 volts and 100 μF (Gene Pulser II, Bio-Rad). Protoplasts were then allowed to recover on ice in the dark for 10 min followed by centrifugation at 500 g for 5 min. After removal of the supernatant, the protoplast pellet, with about 500 μl of buffer, was supplemented with another 500 μl protoplast incubation buffer. Protoplasts were incubated in the dark at 30° C. for 24 hr.
(§1) Kinase inhibitors (CalBiochem, San Diego, Calif.) at the concentration of 1 μM for staurosporine, 350 nM for SB 202190 and 1 μM for PD 98059, SB 203580 and SB 202474, when applicable, were included in the protoplast incubation buffer.
RT-PCR was as described above. The number of PCR cycles corresponded to the high end of the range in which a linear increase in products could be detected (generally 14-16 cycles were used). Reaction products were separated on 1.0% agarose gels. Southern blot analysis was used to estimate levels of specific amplified products. Equivalence of cDNA in different samples was verified using PCR reactions for actin. Primers were designed for PCR according to published sequences for tomato PR-lbl, chitinase, Twit, ER5 and actin (Tornero et al., 1997; Danhash et al., 1993; O'Donnell et al., 1998; Zegzoutti et al. 1997; Moniz de Sa and Drouin, 1996).
To study divergence of the signal pathways downstream of tMEK2 the influence of […] expression in tomato protoplasts was examined in the presence of a broad protein kinase inhibitor (staurosporine) and inhibitors specific to the p38 class MAPK (SB 202190 or SB 203580). Staurosporine inhibited all four genes that were previously activated by tMEK2^MUT; whereas, inhibitors of p38 class MAPK inhibited the PR3 and ER5 genes but not PRlbl or Twi1. […] The results, shown in FIG. 6, are consistent with the divergence of signal pathway downstream of tMEK2. One of these pathways could include a p38 class MAPK.

In data set [2] the test system is tomato leaf mesophyll protoplasts. As to the kind of experiment: Protoplast viability in the presence of kinase inhibitors. In kind it is cell-based, Tomato (Lycopersicon esculentum cv Bonny Best). As to conditions: 1 μM staurosporine, 350 nM SB 202190, 1 μM PD 98059, SB 203580 and SB 202474; data not shown. The procedure:
as §1

Data set [3] has as its system myelin basic protein.
Data set [4] concerns the target myelin basic protein. This is another data set of the same source.
Data set [5] relates to PR1b1, PR3 (chitinase) and Twi1 genes. As to the kind of experiment: Tomato protoplast transient expression, quantitative RT-PCR of pathogenesis-related genes. The class given is cell-based, Tomato (Lycopersicon esculentum cv Bonny Best). The settings on record: transient expression driven by tCUPΔ promoter after electroporation, 24 hr incubation, quantitative RT-PCR (FIG. 4). The text has this: To examine the effects of tMEK2^WT and tMEK2^MUT on the activation of pathogenesis-related (PR) or other pathogen-inducible genes a tomato protoplast transient expression system was developed. Chimeric genes, tCUPΔ-tMEK2^WT-nos and tCUPΔ-tMEK2^MUT-nos, were constructed using the storing constitutive promoter, tCUPΔ, which was derived from the tCUP promoter as by modification of the mRNA leader sequence described above. After electroporation, transient expression of potential target genes was detected by quantitative RT-PCR. The genes analysed included PRlbl, which is activated by tomato mosaic virus (Tornero et al., 1997); PR3 (chitinase), which is activated during an incompatible C. fulvam-tomato interaction (Danhash et al., 1993); and Twi, which is a pathogen- and would-inducible gene recently identified in tomato (O'Donnell, et al., 1998).
Tomato (Lycopersicon esculentum cv Bonny Best) were grown at 80% relative humidity in peat soil in growth cabinets programmed for 16 hr days at 25° C. and 8 hr nights at 22° C. Light intensity was controlled at 25 pE m-2 S-1 emitted from “cool white” fluorescent lamps (Philip Canada, Scarborough, Ontario). […]
(§2) RT-PCR was as described above. The number of PCR cycles corresponded to the high end of the range in which a linear increase in products could be detected (generally 14-16 cycles were used). […]

For data set [6], the system named is ER5 gene. As to the kind of experiment: Tomato protoplast transient expression, quantitative RT-PCR of wound-inducible gene ER5. As to conditions: transient expression in tomato protoplasts, quantitative RT-PCR (FIG. 5b). In kind it is cell-based, Tomato (Lycopersicon esculentum cv Bonny Best). The procedure:
Tomato (Lycopersicon esculentum cv Bonny Best) were grown at 80% relative humidity in peat soil in growth cabinets programmed for 16 hr days at 25° C. and 8 hr nights at 22° C. Light intensity was controlled at 25 pE m-2 S-1 emitted from “cool white” fluorescent lamps (Philip Canada, Scarborough, Ontario). The youngest fully expanded leaves were surface sterilized for 5 min in 4% sodium hypochlorite and rinsed three times with sterile water. The lower epidermis was gently rubbed with Carborundum, rinsed with sterile water and leaf fragments of ca. 1 cm^2 were floated with exposed surface facing an enzyme solution containing 0.15% macerozyme R10 (Yakult Honsha Co., Japan), 0.3% Cellulase “Onozuka” Rio (Yakult Honsha Co., Japan), 0.4 M sucrose in K3 medium (Maliga et. al., 1973). After overnight incubation at 30° C., the enzyme-protoplast mixture was filtered through a 100 μm nylon sieve, centrifuged at 500 g for 5 min. and floated protoplasts were collected and washed twice with W5 medium (Maliga et.al., 1973). The protoplasts were kept on ice in W5 medium for 2 hr before transformation. […]
as §2

Like-named read-outs stand apart in the source and are kept apart here.

Turning to `COc1cccc(-c2cc(=O)c3ccccc3o2)c1N` [PD 98059], the “effect on all four genes previously activated by tMEK2^MUT” value (shortened to “effect … by tMEK2^MUT”) in data set [1] is given as “no effects”.
For the molecule `CCc1nc(-c2ccc(OC)cc2)[nH]c1-c1ccncc1` [SB202474], the “effect … by tMEK2^MUT” value in data set [1] is given as “no effects”. Further, the “change of protoplast viability” value in data set [2] is recorded as “did not change”.
As to `Oc1ccc(-c2nc(-c3ccc(F)cc3)c(-c3ccncc3)[nH]2)cc1` [SB 202190], in data set [1], the “effect on tMEK2^MUT-activated PR3 and ER5 genes” value is recorded as “inhibited”; the “effect on tMEK2^MUT-activated PRlbl or Twi1 genes” value is reported as “not”.
Consider `C[S+]([O-])c1ccc(-c2nc(-c3ccc(F)cc3)c(-c3ccncc3)[nH]2)cc1` (centres unmarked) [SB 203580], for which, in data set [1], the “effect on tMEK2^MUT-activated PR3 and ER5 genes” value was “inhibited”; the “effect on tMEK2^MUT-activated PRlbl or Twi1 genes” value is “not”. In addition, in data set [2], the “change of protoplast viability” value was “did not change”.
In the case of `CN[C@@H]1C[C@H]2O[C@@](C)([C@@H]1OC)n1c3ccccc3c3c4c(c5c6ccccc6n2c5c31)C(=O)NC4` [Staurosporine, staurosporine], the “effect … by tMEK2^MUT” value in data set [1] is on record as “inhibited”. Also, the “change of protoplast viability” value in data set [2] is reported as “did not change”.
With “GST-tMEK2^MUT (recombinant glutathione-S-transferase fusion of tMEK2 with serine221 and threonine226 replaced with aspartic acid)”, in data set [3], the “substrate phosphorylation (in vitro kinase assay, SDS-PAGE, autoradiography)” value is “Both the wild type and mutant forms of the tMEK2 enzyme phosphorylated myelin basic protein (MPB) in vitro”.

B1: GST-tMEK2^WT (recombinant glutathione-S-transferase fusion of wild type tomato cv. Bonny Best MAP kinase kinase tMEK2) (protein)
chain: MKKGSFAPNLKLSLPPPDEVALSKFLTESGTFKDGDLLVNRDGVRIVSQSEVAAPSVIQPSDNQLCLADFEAVKVIGKGNGGIVRLVQHKWTGQFFALKVIQMNIDESMRKHIAQELRINQSSQCPYVVICYQSFFDNGAISLILEYMDGGSLADFLKKVKTIPERFLAVICKQVLKGLWYLHHEKHIIHRDLKPSNLLINHRGDVKITDFGVSAVLASTSGLANTFVGTYNYMSPERISGGAYDYKSDIWSLGLVLLECATGHFPYKPPEGDEGWVNVYELMETIVDQPEPCAPPDQFSPQFCSFISACVQKHQKDRLSANDLMSHPFITMYDDQDIDLGSYFTSAGPPLATLTEL
Consider B1, for which the “substrate phosphorylation (in vitro kinase assay, SDS-PAGE, autoradiography)” value in data set [4] was “Both the wild type and mutant forms of the tMEK2 enzyme phosphorylated myelin basic protein (MPB) in vitro”.

B2: tMEK2^WT: wild type MAPKK gene tMEK2 isolated from tomato cv. Bonny Best, expressed from tCUPΔ promoter (protein)
chain: MKKGSFAPNLKLSLPPPDEVALSKFLTESGTFKDGDLLVNRDGVRIVSQSEVAAPSVIQPSDNQLCLADFEAVKVIGKGNGGIVRLVQHKWTGQFFALKVIQMNIDESMRKHIAQELRINQSSQCPYVVICYQSFFDNGAISLILEYMDGGSLADFLKKVKTIPERFLAVICKQVLKGLWYLHHEKHIIHRDLKPSNLLINHRGDVKITDFGVSAVLASTSGLANTFVGTYNYMSPERISGGAYDYKSDIWSLGLVLLECATGHFPYKPPEGDEGWVNVYELMETIVDQPEPCAPPDQFSPQFCSFISACVQKHQKDRLSANDLMSHPFITMYDDQDIDLGSYFTSAGPPLATLTEL
modifications: left off: a dimerising Fc or GST
Regarding B2, the “activation of tomato PRlbl, chitinase and Twil genes” value in data set [5] is given as “no effect”. Moreover, the “activation of ER5 gene” value in data set [6] is “did not”.

For the origin of these results see patent US6376747B1, “Plant-derived map kinase kinase” (Her Majesty the Queen in right of Canada as represented by …, priority 1999, dated 2002).
